In ChEMBL document CHEMBL3046380, “In Vitro and In Vivo Characterization of Alpha-1A Selective Agonists and Their Utility for Stress Incontience” (Med Chem Res, 2004):
Calls of active or inactive are those of the source. The rule behind the calls is not given here.

Tests used:
[1] = target: T1, Alpha-1D adrenergic receptor (Rattus norvegicus, UniProt P23944); assay: Antagonist activity at alpha1D adrenoreceptor in Rattus norvegicus (rat) aorta assessed as inhibition of phenylephrine-indued contraction; settings: read-out: pA2 (converted)
T1 sequence (P23944 whole entry): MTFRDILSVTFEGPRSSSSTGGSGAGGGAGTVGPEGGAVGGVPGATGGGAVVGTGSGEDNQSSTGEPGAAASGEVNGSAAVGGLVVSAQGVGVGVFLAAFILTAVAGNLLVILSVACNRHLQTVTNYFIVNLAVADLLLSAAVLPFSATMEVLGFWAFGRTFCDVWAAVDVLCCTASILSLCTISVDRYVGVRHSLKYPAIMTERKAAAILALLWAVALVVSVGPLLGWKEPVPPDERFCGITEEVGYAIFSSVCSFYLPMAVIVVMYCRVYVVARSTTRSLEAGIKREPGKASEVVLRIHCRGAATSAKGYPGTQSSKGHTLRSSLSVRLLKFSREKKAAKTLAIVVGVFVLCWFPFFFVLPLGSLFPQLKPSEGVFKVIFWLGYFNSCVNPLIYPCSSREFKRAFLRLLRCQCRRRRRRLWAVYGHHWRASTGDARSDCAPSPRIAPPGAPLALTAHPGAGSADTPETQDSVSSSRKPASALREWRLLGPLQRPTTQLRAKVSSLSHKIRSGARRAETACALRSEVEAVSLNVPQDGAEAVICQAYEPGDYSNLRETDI

Canis familiaris [2] = assay: Selectivity index, ratio of ED20 for change in mean arterial pressure to ED5 for effect on intraurethral pressure in iv dosed Canis lupus familiaris (dog); parameters: species or system Artery
[3] = target: T2, Alpha-1B adrenergic receptor (Rattus norvegicus, UniProt P15823); assay: Antagonist activity at alpha1B adrenoreceptor in Rattus norvegicus (rat) spleen assessed as inhibition of phenylephrine-indued contraction; settings: read-out: pA2 (converted)
T2 sequence (P15823 whole entry): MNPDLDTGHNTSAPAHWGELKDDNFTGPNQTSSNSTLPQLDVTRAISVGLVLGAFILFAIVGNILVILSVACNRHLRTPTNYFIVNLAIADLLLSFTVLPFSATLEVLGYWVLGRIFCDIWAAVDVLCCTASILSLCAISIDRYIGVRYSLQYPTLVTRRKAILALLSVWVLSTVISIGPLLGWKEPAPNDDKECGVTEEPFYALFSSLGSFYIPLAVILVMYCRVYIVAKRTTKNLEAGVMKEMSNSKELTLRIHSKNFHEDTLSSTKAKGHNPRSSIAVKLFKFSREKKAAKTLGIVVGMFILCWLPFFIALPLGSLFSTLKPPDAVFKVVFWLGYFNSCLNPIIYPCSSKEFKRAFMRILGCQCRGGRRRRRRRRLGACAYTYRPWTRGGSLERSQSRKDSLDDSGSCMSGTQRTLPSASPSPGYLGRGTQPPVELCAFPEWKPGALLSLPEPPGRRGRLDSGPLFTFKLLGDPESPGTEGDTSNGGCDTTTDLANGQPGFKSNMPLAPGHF

[4] = target: T3, Alpha-1A adrenergic receptor (Oryctolagus cuniculus) (UniProt O02824); assay: Agonist activity at alpha1A adrenoreceptor in Oryctolagus cuniculus (rabbit) urethra relative to phenylephrine
T3 sequence (whole entry): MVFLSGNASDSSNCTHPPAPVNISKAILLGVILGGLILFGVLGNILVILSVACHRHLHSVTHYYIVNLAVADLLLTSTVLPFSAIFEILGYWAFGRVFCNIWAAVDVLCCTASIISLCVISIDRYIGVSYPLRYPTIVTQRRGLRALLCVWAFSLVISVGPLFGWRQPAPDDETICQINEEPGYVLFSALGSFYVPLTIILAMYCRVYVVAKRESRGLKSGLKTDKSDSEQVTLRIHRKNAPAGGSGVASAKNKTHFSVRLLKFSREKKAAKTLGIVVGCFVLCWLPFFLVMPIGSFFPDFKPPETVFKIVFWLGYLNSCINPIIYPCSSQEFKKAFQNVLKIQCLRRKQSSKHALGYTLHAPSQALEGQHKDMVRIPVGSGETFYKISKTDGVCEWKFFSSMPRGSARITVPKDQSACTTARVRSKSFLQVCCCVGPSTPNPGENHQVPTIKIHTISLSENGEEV

[5] = target: T4, Alpha-1B adrenergic receptor (Mesocricetus auratus, UniProt P18841); assay: Binding affinity to Cricetinae (hamster) alpha1B adrenoreceptor by radioligand displacement assay
T4 sequence (P18841 whole entry): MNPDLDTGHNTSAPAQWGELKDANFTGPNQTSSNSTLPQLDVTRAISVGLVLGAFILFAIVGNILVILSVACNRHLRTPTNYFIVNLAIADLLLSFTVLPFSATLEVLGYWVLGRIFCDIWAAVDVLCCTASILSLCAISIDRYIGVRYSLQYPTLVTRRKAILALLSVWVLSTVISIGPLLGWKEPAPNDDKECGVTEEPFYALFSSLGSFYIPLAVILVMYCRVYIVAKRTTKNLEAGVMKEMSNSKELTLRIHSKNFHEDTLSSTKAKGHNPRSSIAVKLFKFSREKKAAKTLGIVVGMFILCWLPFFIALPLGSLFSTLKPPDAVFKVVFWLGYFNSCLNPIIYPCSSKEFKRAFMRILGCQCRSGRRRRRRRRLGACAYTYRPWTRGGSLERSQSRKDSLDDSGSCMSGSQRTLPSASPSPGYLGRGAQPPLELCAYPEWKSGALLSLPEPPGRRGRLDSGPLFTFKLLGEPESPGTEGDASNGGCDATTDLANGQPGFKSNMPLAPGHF

[6] = target: T5, Alpha-1B adrenergic receptor (Rattus norvegicus) (UniProt P15823); assay: Agonist activity at alpha1B adrenoreceptor in Rattus norvegicus (rat) spleen relative to phenylephrine
T5 sequence (whole entry): T2 sequence (P15823 whole entry)

[7] = target: T2, Alpha-1B adrenergic receptor; assay: (§1) Agonist activity at alpha1B adrenoreceptor in Rattus norvegicus (rat) spleen
[8] = target: T6, Alpha-1A adrenergic receptor (Rattus norvegicus, UniProt P43140); assay: Binding affinity to alpha1A adrenoreceptor in Rattus norvegicus (rat) submaxillary gland by radioligand displacement assay
T6 sequence (P43140 whole entry): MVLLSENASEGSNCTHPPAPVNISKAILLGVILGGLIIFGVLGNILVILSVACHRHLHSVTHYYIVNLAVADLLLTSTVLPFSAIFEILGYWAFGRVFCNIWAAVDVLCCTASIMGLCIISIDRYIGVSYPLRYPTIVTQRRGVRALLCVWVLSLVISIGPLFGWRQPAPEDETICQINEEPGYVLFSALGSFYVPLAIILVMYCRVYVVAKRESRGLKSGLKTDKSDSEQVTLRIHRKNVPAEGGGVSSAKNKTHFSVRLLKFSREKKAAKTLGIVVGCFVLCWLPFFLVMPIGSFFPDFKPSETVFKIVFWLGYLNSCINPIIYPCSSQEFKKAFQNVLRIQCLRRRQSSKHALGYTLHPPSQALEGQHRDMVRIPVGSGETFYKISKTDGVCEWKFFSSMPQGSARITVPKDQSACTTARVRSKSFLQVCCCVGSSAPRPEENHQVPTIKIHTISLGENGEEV

[9] = target: T7, Alpha-1A adrenergic receptor (Oryctolagus cuniculus, UniProt O02824); assay: (§2) Agonist activity at alpha1A adrenoreceptor in Oryctolagus cuniculus (rabbit) urethra
T7 sequence (O02824 whole entry): T3 sequence (whole entry)

[10] = target: T1, Alpha-1D adrenergic receptor; assay: Binding affinity to Rattus norvegicus (rat) alpha1D adrenoreceptor by radioligand displacement assay
[11] = target: T5, Alpha-1B adrenergic receptor (Rattus norvegicus); assay: as §1
[12] = target: T3, Alpha-1A adrenergic receptor (Oryctolagus cuniculus); assay: as §2
[13] = target: T1, Alpha-1D adrenergic receptor; assay: Agonist activity at alpha1D adrenoreceptor in Rattus norvegicus (rat) aorta
Canis familiaris [14] = assay: Pressor activity in Canis lupus familiaris (dog) assessed as increase in mean arterial blood pressure at 100 nmol/kg, iv; type: ADME, organism-based; settings: in vivo
Canis familiaris [15] = assay: Pressor activity in Canis lupus familiaris (dog) assessed as increase in mean arterial blood pressure at 100 nmol/kg, iv in presence of idazoxan; type: ADME, organism-based; settings: in vivo
Canis familiaris [16] = assay: Pressor activity in Canis lupus familiaris (dog) assessed as increase in mean arterial blood pressure at 100 nmol/kg, iv in presence of prazosin; type: ADME, organism-based; settings: in vivo
[17] = target: T8, Alpha-1D adrenergic receptor (Rattus norvegicus) (UniProt P23944); assay: Agonist activity at alpha1D adrenoreceptor in Rattus norvegicus (rat) aorta relative to phenylephrine
T8 sequence (whole entry): T1 sequence (P23944 whole entry)

| Compound | Ki [5] | Ki [8] | Ki [10] | pEC50 [11] | further results |
| --- | --- | --- | --- | --- | --- |
| CCS(=O)(=O)Nc1cccc2c1CCC[C@H]2c1c[nH]cn1 | 1.32 µM | 0.0468 µM | 1.07 µM |  | Kb [1]: 7.24 µM; Selectivity Index (Canis familiaris [2]): 3.3; Kb [3]: 13.8 µM; Efficacy [4]: 71%; Efficacy [6]: 11%; EC50 [7]: 3.8 µM; EC50 [9]: 0.17 µM |
| COC(=O)Nc1cccc2c1CCCC2c1c[nH]cn1 (stereo unspecified) |  |  |  | inactive | pEC50 [12]: inactive |
| CC(N)C(O)c1ccccc1 (stereo unspecified) [PHENYLPROPANOLAMINE] |  |  |  |  | Selectivity Index (Canis familiaris [2]): 0.4; EC50 [13]: 75.9 µM; EC50 [7]: 282 µM; EC50 [9]: 234 µM |
| CCS(=O)(=O)Nc1cccc(Cc2c[nH]cn2)c1 |  |  |  |  | Kb [1]: 0.661 µM; Kb [3]: 4.07 µM; Efficacy [6]: 11%; Activity (Canis familiaris [14]): Toxic; Activity (Canis familiaris [15]): Toxic; Activity (Canis familiaris [16]): Non-toxic |
| O=S(=O)(Nc1c(O)ccc2c1CCCC2C1=NCCN1)C(F)(F)F (stereo unspecified) | > 3.16 µM | > 3.16 µM | > 3.16 µM |  |  |
| CCCS(=O)(=O)Nc1c(O)ccc2c1CCCC2C1=NCCN1 (stereo unspecified) | 3.09 µM | 0.776 µM | 1.86 µM |  |  |
| COc1ccc(OC)c(C(O)CN)c1 (stereo unspecified) [DESGLYMIDODRINE] |  |  |  |  | Selectivity Index (Canis familiaris [2]): 1.3; EC50 [13]: 1.86 µM; EC50 [9]: 7.08 µM |
| CS(=O)(=O)Nc1cccc2c1CCCCC2c1c[nH]cn1 (stereo unspecified) |  |  |  | inactive |  |
| CCS(=O)(=O)Nc1cccc(Cc2c[nH]cn2)c1C |  |  |  |  | Kb [1]: 5.89 µM; Kb [3]: 15.1 µM |
| Cn1cnc(C2CCCc3c(NS(C)(=O)=O)cccc32)c1 (stereo unspecified) | 1.05 µM |  | 3.63 µM |  |  |
| CS(=O)(=O)Nc1c(O)ccc2c1CCCC2C1=NCCN1 (stereo unspecified) |  |  |  |  | Efficacy [4]: 88%; Efficacy [17]: 99% |
| CC(C)S(=O)(=O)Nc1cccc2c1CCCC2c1c[nH]cn1 (stereo unspecified) | > 10 µM |  |  |  | Efficacy [6]: 8%; EC50 [7]: 14.1 µM; EC50 [9]: 6.76 µM |
| Cn1cncc1C1CCCc2c(NS(C)(=O)=O)cccc21 (stereo unspecified) | > 10 µM | > 10 µM | > 10 µM | inactive | pEC50 [12]: inactive |
| Nc1cccc2c1CCCC2c1c[nH]cn1 (stereo unspecified) |  | 0.126 µM |  |  | EC50 [7]: 0.977 µM; EC50 [9]: 0.275 µM |
| COC(=O)Nc1c(O)ccc2c1CCCC2C1=NCCN1 (stereo unspecified) | 10 µM | 0.288 µM | 8.51 µM |  |  |
| CN(c1c(O)ccc2c1CCCC2C1=NCCN1)S(C)(=O)=O (stereo unspecified) | 15.8 µM | 5.5 µM | 18.2 µM |  |  |
| CCS(=O)(=O)Nc1cccc2c1CCCC2c1c[nH]c(C)n1 (stereo unspecified) | > 10 µM |  | > 10 µM | inactive | pEC50 [12]: inactive |
| O=S(=O)(Nc1c(O)ccc2c1CCCC2C1=NCCN1)c1ccccc1 (stereo unspecified) | > 3.16 µM | > 3.16 µM | > 3.16 µM |  |  |
| COc1ccc2c(c1NS(C)(=O)=O)CCCC2C1=NCCN1 (stereo unspecified) | 3.47 µM | 0.617 µM | 1.55 µM |  |  |
| CCS(=O)(=O)Nc1cccc2c1CCCC2c1c[nH]cn1 (stereo unspecified) |  |  |  | inactive |  |
| CCCS(=O)(=O)Nc1cccc2c1CCCC2c1c[nH]cn1 (stereo unspecified) | > 10 µM |  | > 10 µM | inactive | pEC50 [12]: inactive |
| O=S(=O)(Nc1cccc2c1CCCC2c1c[nH]cn1)C1CC1 (stereo unspecified) | > 10 µM |  |  | inactive | EC50 [9]: 5.62 µM |
| NC(=O)Nc1c(O)ccc2c1CCCC2C1=NCCN1 (stereo unspecified) | 10 µM | 7.08 µM | 5.5 µM |  |  |
| CCS(=O)(=O)Nc1c(O)ccc2c1CCCC2C1=NCCN1 (stereo unspecified) | 4.27 µM | 0.0603 µM | 2.19 µM |  |  |
| O=S(=O)(CC(F)(F)F)Nc1cccc2c1CCCC2c1c[nH]cn1 (stereo unspecified) | > 10 µM |  | > 10 µM | inactive | Kb [1]: 27.5 µM; Kb [3]: 42.7 µM; Efficacy [4]: 64% |
